Measured values reported in the NIST ThermoML archive (doi:10.1021/je020220n).
“And” between values parts separate entries of the source, which are not always exact repeats. Identical values can stand only once.

Settings: Crystal

[Cl][Er]([Cl])[Cl] [erbium trichloride]
Settings	vapor or sublimation pressure
880 K	1.07e-05 kPa
892 K	1.58e-05 kPa
897 K	2.14e-05 kPa
903 K	2.69e-05 kPa
907 K	1.7e-05 kPa and 3.24e-05 kPa
913 K	4.27e-05 kPa
916 K	5.13e-05 kPa
920 K	3.39e-05 kPa
921 K	5.89e-05 kPa
923 K	3.39e-05 kPa
925 K	4.27e-05 kPa and 6.92e-05 kPa
929 K	5.01e-05 kPa
932 K	5.01e-05 kPa and 4.27e-05 kPa
933 K	0.0001023 kPa
935 K	5.01e-05 kPa and 0.0001072 kPa
936 K	6.76e-05 kPa
943 K	0.0001445 kPa [middle of 4 runs]
948 K	0.0001349 kPa
949 K	8.51e-05 kPa
950 K	0.0001995 kPa
951 K	0.0001995 kPa
952 K	0.0001175 kPa
953 K	0.0001349 kPa
954 K	0.0001 kPa
958 K	0.0001514 kPa and 0.0001862 kPa
959 K	0.0002754 kPa
960 K	0.0002754 kPa
963 K	0.0001698 kPa [middle of 4 runs]
968 K	0.0002188 kPa and 0.0002692 kPa and 0.0003715 kPa
970 K	0.0002188 kPa and 0.0003802 kPa
972 K	0.0002692 kPa
976 K	0.0002344 kPa
977 K	0.0003981 kPa and 0.0002455 kPa
978 K	0.0003236 kPa
981 K	0.0003715 kPa
983 K	0.0004898 kPa
986 K	0.0004365 kPa
988 K	0.0003467 kPa
990 K	0.000631 kPa and 0.0004074 kPa and 0.0005012 kPa
995 K	0.0005754 kPa and 0.000631 kPa
997 K	0.0008318 kPa
998 K	0.0004786 kPa
999 K	0.0006761 kPa
1003 K	0.0006607 kPa and 0.0008511 kPa
1004 K	0.0007762 kPa
1008 K	0.0009333 kPa and 0.0006761 kPa
1012 K	0.001071 kPa
1013 K	0.001097 kPa
1014 K	0.001412 kPa
1016 K	0.001071 kPa
1017 K	0.001288 kPa
1018 K	0.0009333 kPa
1021 K	0.001445 kPa
1022 K	0.001514 kPa
1025 K	0.00195 kPa and 0.001698 kPa
1028 K	0.001318 kPa
1030 K	0.001514 kPa and 0.00195 kPa
1031 K	0.002138 kPa
1033 K	0.002512 kPa
1034 K	0.002512 kPa
1037 K	0.002455 kPa
1040 K	0.002818 kPa and 0.003162 kPa and 0.002344 kPa

[Br][Er]([Br])[Br] [erbium bromide (ErBr3)]
Settings	vapor or sublimation pressure
919 K	2.82e-05 kPa
930 K	4.17e-05 kPa and 7.08e-05 kPa
941 K	7.08e-05 kPa
942 K	8.91e-05 kPa and 0.0001122 kPa
948 K	9.77e-05 kPa
952 K	0.000123 kPa
954 K	0.0001413 kPa
956 K	0.000182 kPa
959 K	0.0001413 kPa
961 K	0.0001995 kPa
962 K	0.0001778 kPa
964 K	0.000195 kPa
966 K	0.0001995 kPa
968 K	0.000182 kPa
970 K	0.0002692 kPa and 0.0002455 kPa
971 K	0.0002951 kPa
973 K	0.0002692 kPa
977 K	0.0003467 kPa
979 K	0.0003311 kPa and 0.0002818 kPa
982 K	0.0003631 kPa
984 K	0.0004898 kPa
988 K	0.0004786 kPa
989 K	0.0004677 kPa
990 K	0.0004898 kPa
993 K	0.0005623 kPa and 0.0004169 kPa
998 K	0.000631 kPa and 0.0006166 kPa and 0.0007943 kPa
1004 K	0.0009333 kPa
1007 K	0.0008318 kPa
1008 K	0.0006761 kPa and 0.0008511 kPa
1009 K	0.000871 kPa
1010 K	0.0009772 kPa
1015 K	0.001349 kPa
1018 K	0.001148 kPa and 0.001122 kPa
1020 K	0.001 kPa
1025 K	0.001698 kPa and 0.001445 kPa
1026 K	0.001514 kPa
1028 K	0.002089 kPa
1033 K	0.002138 kPa and 0.001585 kPa
1036 K	0.002042 kPa and 0.00257 kPa and 0.002089 kPa
1045 K	0.002951 kPa and 0.002818 kPa
1051 K	0.003631 kPa
1056 K	0.00389 kPa
1058 K	0.004365 kPa
